Values after ≈ are worked out from the molar mass of the structure shown. Where two headings read alike, the source gives them in different places.

Holding throughout (test): Minimum inhibitory concentration (MIC), standard method of the Japanese Chemotherapeutic Association
Assay [1] relates to Staphylococcus aureus 209-P. The class given is cell-based. Conditions: read-out: Minimum Inhibitory Concentration (MIC).
In assay [2] the test system is Staphylococcus aureus TERAJIMA
Type of assay: cell-based. The following applies: read-out: Minimum Inhibitory Concentration (MIC).

For assay [3], the system named is Staphylococcus epidermidis ATCC12228. Type of assay: cell-based.
The subject of assay [4] is Bacillus subtilis ATCC 6633. The class given is cell-based.
Another assay deals with Escherichia coli N I H J. Type of assay: cell-based. Conditions: Inoculum size: 10^6 cells/ml, read-out: Minimum Inhibitory Concentration (MIC).
The subject of a further assay is Escherichia coli MEGAWA. Type of assay: cell-based. The following applies: Inoculum size: 10^6 cells/ml; for MIC: Escherichia coli, read-out: Minimum Inhibitory Concentration (MIC).
For a further assay, the system named is Proteus vulgaris. Type of assay: cell-based. Conditions: read-out: Minimum Inhibitory Concentration (MIC).
For another assay, the system named is Proteus morganii IID 602. The class given is cell-based. The following applies: Morganella morganii.
Assay [5] deals with Pseudomonas aeruginosa IFO 13739. Type of assay: cell-based.
Assay [6] has as its system Pseudomonas aeruginosa IFO 3080. Type of assay: cell-based. Conditions: IFO3080, read-out: Minimum Inhibitory Concentration (MIC).
For assay [7], the system named is Pseudomonas pudita IID 5121. The class given is cell-based. Conditions: IID5121, Inoculum size: 10^6 cells/ml, read-out: Minimum Inhibitory Concentration (MIC).
For assay [8], the system named is Klebsiella pneumoniae IID 865. Type of assay: cell-based.
Assay [9] relates to Salmonella enteritidis IID 604. The class given is cell-based. The following applies: Salmonella enterica, read-out: Minimum Inhibitory Concentration (MIC).
For assay [10], the system named is Salmonella typhimurium IID 1000. Type of assay: cell-based. The following applies: Salmonella enterica, read-out: Minimum Inhibitory Concentration (MIC).
A further assay has as its system Shigella boydii IID 627. The class given is cell-based. The following applies: IID627, Inoculum size: 10^6 cells/ml.
For another assay, the system named is Shigella sonnei IID 969. Type of assay: cell-based. Conditions: IID969, Inoculum size: 10^6 cells/ml.
For assay [11], the system named is Enterobacter aerogenes IID 5206. Type of assay: cell-based. The following applies: Klebsiella aerogenes.
For assay [12], the system named is Enterobacter cloacae IID 977. The class given is cell-based.
Assay [13] deals with Serratia marcenscens IFO 12648. Type of assay: cell-based. The following applies: IFO12648, Inoculum size: 10^6 cells/ml, read-out: Minimum Inhibitory Concentration (MIC).
Assay [14] relates to Salmonella paratyphi IID 605. Conditions: Salmonella enterica, IID605|PARATYPHI, read-out: Minimum Inhibitory Concentration (MIC).
Assay [15] concerns Shigella dysenteriae IID 633. The following applies: IID633, read-out: Minimum Inhibitory Concentration (MIC).
Where [16] appears, read: Inoculum size: 10^6 cells/ml, weight concentration.

For `Cn1nnnc1SCC1=C(C(=O)O)N2C(=O)C(NC(=O)[C@H](NC(=O)N3CCN(N=C4SCCS4)C3=O)c3ccccc3)C2SC1` (single isomer, unassigned) [KI-6248, sodium 7-{D-(-)-α-[(2-oxo-3-(1,3-dithiolan-2-imino)-imidazolidin-1-yl)-carboxamido]-phenylacetamido}-3-[(1-methyl-1,2,3,4-tetrazol-5-yl)-thiomethyl]-3-cephem-4-carboxylate], the MIC in assay [1] (setting [16]) was 0.78 µg/mL; in [2] (setting [16]) it was 0.78 µg/mL; in assay [3] (ATCC12228, Inoculum size: 10^6 cells/ml, weight concentration, read-out: Minimum Inhibitory Concentration (MIC)), 0.39 µg/mL; in [4] (ATCC6633, Inoculum size: 10^6 cells/ml, weight concentration, read-out: Minimum Inhibitory Concentration (MIC)), 0.78 µg/mL; with Escherichia coli N I H J (weight concentration) it was under 0.1 µg/mL; in the assay on Escherichia coli MEGAWA (weight concentration) it was 6.25 µg/mL. Besides, the MIC with Proteus vulgaris was 1.56 µg/mL; in the assay on Proteus morganii IID 602 (IID602, Inoculum size: 10^6 cells/ml, weight concentration, read-out: Minimum Inhibitory Concentration (MIC)), 3.13 µg/mL; in [5] (IFO13739, Inoculum size: 10^6 cells/ml, weight concentration, read-out: Minimum Inhibitory Concentration (MIC)), 12.5 µg/mL; in assay [6], 1.56 µg/mL; in assay [7] (weight concentration), 25 µg/mL; in assay [8] (IID865, Inoculum size: 10^6 cells/ml, weight concentration, read-out: Minimum Inhibitory Concentration (MIC)), under 0.1 µg/mL. Moreover, the MIC turned out to be 3.13 µg/mL in [9] (setting [16]); 0.78 µg/mL in [10] (setting [16]); 0.39 µg/mL with Shigella boydii IID 627 (weight concentration); 0.78 µg/mL against Shigella sonnei IID 969 (weight concentration); 3.13 µg/mL in assay [11] (IID5206, Inoculum size: 10^6 cells/ml, weight concentration, read-out: Minimum Inhibitory Concentration (MIC)); 3.13 µg/mL in [12] (IID977, Inoculum size: 10^6 cells/ml, weight concentration, read-out: Minimum Inhibitory Concentration (MIC)). Besides, the results for the MIC in [13] (weight concentration), in assay [14] and in assay [15] were 3.13 µg/mL, 1.56 µg/mL and 0.2 µg/mL, respectively.

In the case of `CC(=O)OCC1=C(C(=O)O)N2C(=O)[C@@H](NC(=O)Cc3cccs3)[C@H]2SC1` [CET, cephalothin, reference compound], the MIC in assay [1] is 0.2 µg/mL (≈ 0.504 µM); in assay [2], 0.2 µg/mL (≈ 0.504 µM); in assay [3] (ATCC12228, read-out: Minimum Inhibitory Concentration (MIC)) it was under 0.1 µg/mL; in [4] (ATCC6633, read-out: Minimum Inhibitory Concentration (MIC)), under 0.1 µg/mL; with Escherichia coli N I H J (potency concentration), 0.39 µg/mL (≈ 0.984 µM); with Escherichia coli MEGAWA (potency concentration) it was over 100 µg/mL. Moreover, the MIC was 6.25 µg/mL (≈ 15.8 µM) in the assay on Proteus vulgaris; over 100 µg/mL in the assay with Proteus morganii IID 602 (IID602, read-out: Minimum Inhibitory Concentration (MIC)); over 100 µg/mL in [5] (IFO13739, read-out: Minimum Inhibitory Concentration (MIC)); over 100 µg/mL in [6]; over 100 µg/mL in assay [7] (potency concentration); 0.78 µg/mL (≈ 1.97 µM) in assay [8] (IID865, read-out: Minimum Inhibitory Concentration (MIC)). Further, the MIC in assay [9] is 1.56 µg/mL (≈ 3.93 µM); in assay [10], 0.78 µg/mL (≈ 1.97 µM); against Shigella boydii IID 627 (potency concentration), 0.78 µg/mL (≈ 1.97 µM); in the assay on Shigella sonnei IID 969 (potency concentration) it was 6.25 µg/mL (≈ 15.8 µM); in [11] (IID5206, read-out: Minimum Inhibitory Concentration (MIC)), over 100 µg/mL; in assay [12] (IID977, read-out: Minimum Inhibitory Concentration (MIC)), over 100 µg/mL. For the same compound, the MIC in assay [13] (potency concentration) is over 100 µg/mL; in assay [14], 3.13 µg/mL (≈ 7.9 µM); in [15], 0.78 µg/mL (≈ 1.97 µM). Further, the “Minimum Inhibitory Concentration (MIC)” value with Escherichia coli MEGAWA (potency concentration) is under 100 µg/mL.

For the origin of these results see patent publication US4436904A, “Cephalosporins” (Kanto Ishi Pharmaceutical Co., Ltd., priority 1981, dated 1984).
